ChEMBL document CHEMBL4196183, “Discovery of New Allosteric Modulators of the Urotensinergic System through Substitution of the Urotensin II-Related Peptide (URP) Phenylalanine Residue” (J Med Chem, 2018)

Tests used:
[1] = biological target: T1, Urotensin-2 receptor (Homo sapiens) (UniProt Q9UKP6); test: Bias factor, ratio of deltalog(Tau/KA) for agonist activity at human UT receptor expressed in HEK293 cells co-expressing G12-polycistronic BRET biosensor assessed as induction of G12 activation by luminescence detection based BRET assay to deltalog(Tau/KA) for agonist activity at human UT receptor expressed in HEK293 cells co-expressing beta-arrestin1-polycistronic BRET biosensor assessed as induction of beta-arrestin1 recruitment by luminescence detection based BRET assay; format: functional, cell-based
T1 sequence (whole entry): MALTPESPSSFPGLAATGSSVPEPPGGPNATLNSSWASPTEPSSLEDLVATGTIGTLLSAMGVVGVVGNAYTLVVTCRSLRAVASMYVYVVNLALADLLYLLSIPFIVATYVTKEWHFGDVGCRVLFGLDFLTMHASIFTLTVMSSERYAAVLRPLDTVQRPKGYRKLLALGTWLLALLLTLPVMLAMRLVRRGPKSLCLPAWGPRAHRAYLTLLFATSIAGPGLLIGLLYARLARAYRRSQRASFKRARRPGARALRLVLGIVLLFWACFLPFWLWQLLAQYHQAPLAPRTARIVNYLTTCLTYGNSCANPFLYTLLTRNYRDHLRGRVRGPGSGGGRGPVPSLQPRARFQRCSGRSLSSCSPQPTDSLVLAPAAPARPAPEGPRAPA

[2] = biological target: T1, Urotensin-2 receptor (Homo sapiens); test: Agonist activity at human UT receptor expressed in HEK293 cells co-expressing G12-polycistronic BRET biosensor assessed as induction of G12 activation measured for 5 mins by luminescence detection based BRET assay relative to 10 uM URP; format: functional, cell-based
[3] = biological target: T1, Urotensin-2 receptor (Homo sapiens); test: Selectivity index, change in deltalog(Tau/KA) for agonist activity at human UT receptor expressed in HEK293 cells co-expressing beta-arrestin1-polycistronic BRET biosensor assessed as induction of beta-arrestin1 recruitment by luminescence detection based BRET assay to deltalog(Tau/KA) for agonist activity at human UT receptor expressed in HEK293 cells co-expressing G12-polycistronic BRET biosensor assessed as induction of G12 activation by luminescence detection based BRET assay to; format: functional, cell-based
[4] = biological target: T2, Urotensin-2 receptor (Rattus norvegicus) (UniProt P49684); test: Agonist activity at UT receptor in Sprague-Dawley rat thoracic aortic ring assessed as induction of contraction relative to KCl-induced contraction; format: functional
T2 sequence (whole entry): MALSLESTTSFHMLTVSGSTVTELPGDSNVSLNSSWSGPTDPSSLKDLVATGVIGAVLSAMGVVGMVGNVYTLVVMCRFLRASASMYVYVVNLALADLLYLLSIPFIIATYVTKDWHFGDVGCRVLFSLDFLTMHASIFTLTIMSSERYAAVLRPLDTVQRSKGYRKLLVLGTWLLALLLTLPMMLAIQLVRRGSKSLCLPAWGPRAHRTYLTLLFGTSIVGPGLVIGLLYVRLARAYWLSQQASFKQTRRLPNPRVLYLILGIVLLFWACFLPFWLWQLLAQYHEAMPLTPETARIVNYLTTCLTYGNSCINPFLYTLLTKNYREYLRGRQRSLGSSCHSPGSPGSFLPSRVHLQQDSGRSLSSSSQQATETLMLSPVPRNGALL

[5] = biological target: T1, Urotensin-2 receptor (Homo sapiens); test: Bias factor, ratio of deltalog(Tau/KA) for agonist activity at human UT receptor expressed in HEK293 cells co-expressing beta-arrestin1-polycistronic BRET biosensor assessed as induction of beta-arrestin1 recruitment by luminescence detection based BRET assay to deltalog(Tau/KA) for agonist activity at human UT receptor expressed in HEK293 cells co-expressing G12-polycistronic BRET biosensor assessed as induction of G12 activation by luminescence detection based BRET assay; format: functional, cell-based
[6] = biological target: T1, Urotensin-2 receptor (Homo sapiens); test: Agonist activity at human UT receptor expressed in HEK293 cells co-expressing Gq-polycistronic BRET biosensor assessed as induction of Gq activation measured for 5 mins by luminescence detection based BRET assay relative to 10 uM URP; format: functional, cell-based
[7] = biological target: T1, Urotensin-2 receptor (Homo sapiens); test: Bias factor, ratio of deltalog(Tau/KA) for agonist activity at human UT receptor expressed in HEK293 cells co-expressing beta-arrestin1-polycistronic BRET biosensor assessed as induction of beta-arrestin1 recruitment by luminescence detection based BRET assay to deltalog(Tau/KA) for agonist activity at human UT receptor expressed in HEK293 cells co-expressing Gq-polycistronic BRET biosensor assessed as induction of Gq activation by luminescence detection based BRET assay; format: functional, cell-based
[8] = biological target: T1, Urotensin-2 receptor (Homo sapiens); test: Selectivity index, change in deltalog(Tau/KA) for agonist activity at human UT receptor expressed in HEK293 cells co-expressing Gq-polycistronic BRET biosensor assessed as induction of Gq activation by luminescence detection based BRET assay to deltalog(Tau/KA) for agonist activity at human UT receptor expressed in HEK293 cells co-expressing beta-arrestin1-polycistronic BRET biosensor assessed as induction of beta-arrestin1 recruitment by luminescence detection based BRET assay; format: functional, cell-based
Urotensin-2 receptor [9] = biological target: T3, Urotensin-2 receptor (Homo sapiens, UniProt Q9UKP6); test: Agonist activity at human UT receptor expressed in HEK293 cells co-expressing Gq-polycistronic BRET biosensor assessed as induction of Gq activation measured for 5 mins by luminescence detection based BRET assay; format: functional, cell-based
T3 sequence (Q9UKP6 whole entry): T1 sequence (whole entry)

[10] = biological target: T1, Urotensin-2 receptor (Homo sapiens); test: Bias factor, ratio of deltalog(Tau/KA) for agonist activity at human UT receptor expressed in HEK293 cells co-expressing Gq-polycistronic BRET biosensor assessed as induction of Gq activation by luminescence detection based BRET assay to deltalog(Tau/KA) for agonist activity at human UT receptor expressed in HEK293 cells co-expressing beta-arrestin1-polycistronic BRET biosensor assessed as induction of beta-arrestin1 recruitment by luminescence detection based BRET assay; format: functional, cell-based
Urotensin-2 receptor [11] = biological target: T3, Urotensin-2 receptor; test: Agonist activity at human UT receptor expressed in HEK293 cells co-expressing beta-arrestin1-polycistronic BRET biosensor assessed as induction of beta-arrestin1 recruitment measured for 5 mins by luminescence detection based BRET assay; format: functional, cell-based
[12] = biological target: T1, Urotensin-2 receptor (Homo sapiens); test: Bias factor, ratio of deltalog(Tau/KA) for agonist activity at human UT receptor expressed in HEK293 cells co-expressing Gq-polycistronic BRET biosensor assessed as induction of Gq activation by luminescence detection based BRET assay to deltalog(Tau/KA) for agonist activity at human UT receptor expressed in HEK293 cells co-expressing G12-polycistronic BRET biosensor assessed as induction of G12 activation by luminescence detection based BRET assay; format: functional, cell-based
Urotensin-2 receptor [13] = biological target: T4, Urotensin-2 receptor (Rattus norvegicus, UniProt P49684); test: Agonist activity at UT receptor in Sprague-Dawley rat thoracic aortic ring assessed as induction of contraction; format: functional
T4 sequence (P49684 whole entry): T2 sequence (whole entry)

[14] = biological target: T1, Urotensin-2 receptor (Homo sapiens); test: Bias factor, ratio of deltalog(Tau/KA) for agonist activity at human UT receptor expressed in HEK293 cells co-expressing G12-polycistronic BRET biosensor assessed as induction of G12 activation by luminescence detection based BRET assay to deltalog(Tau/KA) for agonist activity at human UT receptor expressed in HEK293 cells co-expressing Gq-polycistronic BRET biosensor assessed as induction of Gq activation by luminescence detection based BRET assay; format: functional, cell-based
Urotensin-2 receptor [15] = biological target: T3, Urotensin-2 receptor; test: Agonist activity at human UT receptor expressed in HEK293 cells co-expressing G12-polycistronic BRET biosensor assessed as induction of G12 activation measured for 5 mins by luminescence detection based BRET assay; format: functional, cell-based
[16] = biological target: T1, Urotensin-2 receptor (Homo sapiens); test: Agonist activity at human UT receptor expressed in HEK293 cells co-expressing beta-arrestin1-polycistronic BRET biosensor assessed as induction of beta-arrestin1 recruitment measured for 5 mins by luminescence detection based BRET assay relative to 10 uM URP; format: functional, cell-based
Urotensin-2 receptor [17] = biological target: T3, Urotensin-2 receptor; test: Displacement of [Na125I]-synthetic URP from human UT receptor expressed in HEK293 cell membranes incubated for 2 hrs by gamma-counting
[18] = biological target: T1, Urotensin-2 receptor (Homo sapiens); test: Selectivity index, change in deltalog(Tau/KA) for agonist activity at human UT receptor expressed in HEK293 cells co-expressing G12-polycistronic BRET biosensor assessed as induction of G12 activation by luminescence detection based BRET assay to deltalog(Tau/KA) for agonist activity at human UT receptor expressed in HEK293 cells co-expressing Gq-polycistronic BRET biosensor assessed as induction of Gq activation by luminescence detection based BRET assay; format: functional, cell-based

Row | SMILES | fold change (FC) [1] | Emax [2] [%] | deltadeltalog(Tau/KA) (beta-arrestin1 selectivity index) [3] | Emax [4] [%] | fold change (FC) [5] | Emax [6] [%] | fold change (FC) [7] | selectivity index, deltadeltalog(Tau/KA) [8] | EC50 (Urotensin-2 receptor [9]) [nM] | fold change (FC) [10] | EC50 (Urotensin-2 receptor [11]) [nM] | fold change (FC) [12] | EC50 (Urotensin-2 receptor [13]) [nM] | fold change (FC) [14] | EC50 (Urotensin-2 receptor [15]) [nM] | Emax [16] [%] | IC50 (Urotensin-2 receptor [17]) [nM] | deltalog(Tau/KA) [18]
1 | CC(C)[C@H](NC(=O)[C@@H]1CSSC[C@H](NC(=O)[C@H](C)N)C(=O)N[C@@H](Cc2ccc(I)cc2)C(=O)N[C@@H](Cc2c[nH]c3ccccc23)C(=O)N[C@@H](CCCCN)C(=O)N[C@@H](Cc2ccc(O)cc2)C(=O)N1)C(=O)O | 0.4 | 73 | 0.45 | 53 | 2.8 | 97 | 2.1 | -0.32 | 10.7 | 0.5 | 182 | 1.3 | 31.6 | 0.8 | 47.9 | 101 | 5.62 | -0.12
2 | CC(C)[C@H](NC(=O)[C@@H]1CSSC[C@H](NC(=O)[C@@H](N)CC(=O)O)C(=O)N[C@@H](Cc2ccc(I)cc2)C(=O)N[C@@H](Cc2c[nH]c3ccccc23)C(=O)N[C@@H](CCCCN)C(=O)N[C@@H](Cc2ccc(O)cc2)C(=O)N1)C(=O)O | 1.3 | 94 | -0.13 | 112 | 0.8 | 100 | 1.2 | -0.1 | 7.08 | 0.8 | 191 | 0.6 | 10.5 | 1.7 | 36.3 | 104 | 3.98 | 0.22
3 | CC(C)[C@H](NC(=O)[C@@H]1CSSC[C@H](NC(=O)[C@H](C)N)C(=O)N[C@H](Cc2ccc(I)cc2)C(=O)N[C@@H](Cc2c[nH]c3ccccc23)C(=O)N[C@@H](CCCCN)C(=O)N[C@@H](Cc2ccc(O)cc2)C(=O)N1)C(=O)O | – | – | – | – | – | – | – | – | 53.7 | – | 355 | – | 13.8 | – | 89.1 | – | > 1000 | –
4 | CC(C)[C@H](NC(=O)[C@@H]1CSSC[C@H](NC(=O)[C@@H](N)CC(=O)O)C(=O)N[C@H](Cc2ccc(I)cc2)C(=O)N[C@@H](Cc2c[nH]c3ccccc23)C(=O)N[C@@H](CCCCN)C(=O)N[C@@H](Cc2ccc(O)cc2)C(=O)N1)C(=O)O | – | – | – | – | – | – | – | – | 46.8 | – | 347 | – | > 10000 | – | 123 | – | > 1000 | –

The remaining lines, values ahead:

Row | fold change (FC) [1] | Emax [2] [%] | deltadeltalog(Tau/KA) (beta-arrestin1 selectivity index) [3] | Emax [4] [%] | fold change (FC) [5] | Emax [6] [%] | fold change (FC) [7] | selectivity index, deltadeltalog(Tau/KA) [8] | EC50 (Urotensin-2 receptor [9]) [nM] | fold change (FC) [10] | EC50 (Urotensin-2 receptor [11]) [nM] | fold change (FC) [12] | EC50 (Urotensin-2 receptor [13]) [nM] | fold change (FC) [14] | EC50 (Urotensin-2 receptor [15]) [nM] | Emax [16] [%] | IC50 (Urotensin-2 receptor [17]) [nM] | deltalog(Tau/KA) [18] | SMILES
5 | – | – | – | – | – | – | – | – | 617 | – | 3310 | – | 1.35 | – | 380 | – | > 1000 | – | CC(C)[C@H](NC(=O)[C@@H]1CSSC[C@H](NC(=O)[C@H](C)N)C(=O)N[C@H](Cc2ccc(C#Cc3ccccc3)cc2)C(=O)N[C@@H](Cc2c[nH]c3ccccc23)C(=O)N[C@@H](CCCCN)C(=O)N[C@@H](Cc2ccc(O)cc2)C(=O)N1)C(=O)O
6 | 1 | – | 0 | 107 | 1 | – | 1 | 0 | 3.63 | 1 | 145 | 1 | 6.92 | 1 | 91.2 | – | 19.5 | 0 | CC(C)[C@H](NC(=O)[C@@H]1CSSC[C@H](NC(=O)[C@H](C)N)C(=O)N[C@@H](Cc2ccccc2)C(=O)N[C@@H](Cc2c[nH]c3ccccc23)C(=O)N[C@@H](CCCCN)C(=O)N[C@@H](Cc2ccc(O)cc2)C(=O)N1)C(=O)O
7 | – | – | – | – | – | – | – | – | 3550 | – | 1150 | – | 1.91 | – | 661 | – | > 1000 | – | CC(C)[C@H](NC(=O)[C@@H]1CSSC[C@H](NC(=O)[C@H](C)N)C(=O)N[C@H](Cc2ccc(-c3ccccc3)cc2)C(=O)N[C@@H](Cc2c[nH]c3ccccc23)C(=O)N[C@@H](CCCCN)C(=O)N[C@@H](Cc2ccc(O)cc2)C(=O)N1)C(=O)O
